Like-named read-outs stand apart in the source and are kept apart here.
Columns and labels:
OPM-2 = experiment: Cell Viability Assay (OPM-2 10 FBS); assay type: cell-based, human; details: OPM-2 cells, CellTiter-Glo, read-out: OPM-2 10% FBS IC50 IP
How it was run: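 Compounds, serially diluted, were left on OPM-2 cells (3000 cells/well, 10% FBS RPMI 1640) for 16 h at 37° C. under 5% CO2.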

Mcl-1/Bim interaction = Mcl-1/Bim interaction (Homo sapiens (Human), UniProt Q07820); experiment: Cell Free Mcl-1: Bim Affinity Assay (Mcl-1 HTRF); assay type: binding; details: TR-FRET, recombinant human Mcl-1(171-327), biotin-Bim(51-76); read-out: Mel-1 HTRF IC50
Mcl-1/Bim interaction, sequence (Q07820 171-327): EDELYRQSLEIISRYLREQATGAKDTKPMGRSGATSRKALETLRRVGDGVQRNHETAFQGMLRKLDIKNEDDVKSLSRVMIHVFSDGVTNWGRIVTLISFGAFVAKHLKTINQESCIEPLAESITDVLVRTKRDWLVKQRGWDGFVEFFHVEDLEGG
How it was run: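 IC50 values came from duplicate four-parameter fits of the 665/620 nm TR-FRET ratio, read after overnight incubation with Eu anti-6×His and streptavidin-Xlent detection reagents. Beforehand, serially diluted compounds sat 60 min with Mcl-1 residues 171-327 (0.1 nM) and biotinylated Bim 51-76 peptide (0.05 nM), pH 7.5 Hepes/NaCl/DTT buffer.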

## C[C@@H]1[C@@H](C)CCC[C@H]([C@H]2OC[C@H](O)CO2)[C@@H]2CC[C@H]2CN2C[C@@]3(CCCc4cc(Cl)ccc43)COc3ccc(cc32)C(=O)NS1(=O)=O [Example 13, (1S,3′R,6′R,7′S,11′S,12′R)-6-chloro-7′-(trans-5-hydroxy-1,3-dioxan-2-yl)-11′,12′-dimethyl-3,4-dihydro-2H,15′H-spiro[naphthalene-1,22′-[20]oxa[13]thia[1,14]diazatetracyclo [14.7.2.0~3,6~.0~19,24~]pentacosa[16,18,24]trien]-15′-one 13′,13′-dioxide]
OPM-2; 16 h
  IC50: 635 nM
Mcl-1/Bim interaction
  IC50: 0.555 nM

## C[C@@H]1[C@@H](C)CCC[C@H]([C@H]2OC[C@H](O)CO2)[C@@H]2CC[C@H]2CN2C[C@@]3(CCCc4cc(Cl)ccc43)COc3ccc(cc32)C(=O)NS1(=O)=O [Example 14, (1S,3′R,6′R,7′S,11′S,12′R)-6-chloro-7′-(trans-5-hydroxy-1,3-dioxan-2-yl)-11′,12′-dimethyl-3,4-dihydro-2H,15′H-spiro[naphthalene-1,22′-[20]oxa[13]thia[1,14]diazatetracyclo [14.7.2.0~3,6~.0~19,24~]pentacosa[16,18,24]trien]-15′-one 13′,13′-dioxide]
OPM-2; 16 h
  IC50: 1990 nM
Mcl-1/Bim interaction
  IC50: 0.765 nM

## C[C@@H]1[C@@H](C)CCC[C@H]([C@H]2OC[C@@H](N3CCCC3)CO2)[C@@H]2CC[C@H]2CN2C[C@@]3(CCCc4cc(Cl)ccc43)COc3ccc(cc32)C(=O)NS1(=O)=O [Example 19, (1S,3′R,6′R,7′S,11′S,12′R)-6-chloro-11′,12′-dimethyl-7′-(cis-5-(1-pyrrolidinyl)-1,3-dioxan-2-yl)-3,4-dihydro-2H,15′H-spiro[naphthalene-1,22′-[20]oxa[13]thia[1,14]diazatetracyclo [14.7.2.0~3,6~.0~19,24~]pentacosa[16,18,24]trien]-15′-one 13′,13′-dioxide]
OPM-2; 16 h
  IC50: 527 nM
Mcl-1/Bim interaction
  IC50: 1.05 nM

## C[C@@H]1[C@@H](C)CCC[C@H]([C@H]2OC[C@@H](N3CCCC3)CO2)[C@@H]2CC[C@H]2CN2C[C@@]3(CCCc4cc(Cl)ccc43)COc3ccc(cc32)C(=O)NS1(=O)=O [Example 22, (1S,3′R,6′R,7′S,11′S,12′R)-6-chloro-11′,12′-dimethyl-7′-(cis-5-(1-pyrrolidinyl)-1,3-dioxan-2-yl)-3,4-dihydro-2H,15′H-spiro[naphthalene-1,22′-[20]oxa[13]thia[1,14]diazatetracyclo [14.7.2.0~3,6~.0~19,24~]pentacosa[16,18,24]trien]-15′-one 13′,13′-dioxide]
OPM-2; 16 h
  IC50: 65 nM
Mcl-1/Bim interaction
  IC50: 0.444 nM

## CCN[C@H]1CO[C@H]([C@H]2CCC[C@H](C)[C@@H](C)S(=O)(=O)NC(=O)c3ccc4c(c3)N(C[C@@H]3CC[C@H]32)C[C@@]2(CCCc3cc(Cl)ccc32)CO4)OC1 [Example 27, (1S,3′R,6′R,7′S,11′S,12′R)-6-chloro-7′-(trans-5-(ethylamino)-1,3-dioxan-2-yl)-11′,12′-dimethyl-3,4-dihydro-2H,15′H-spiro[naphthalene-1,22′-[20]oxa[13]thia[1,14]diazatetracyclo [14.7.2.0~3,6~.0~19,24~]pentacosa[16,18,24]trien]-15′-one 13′,13′-dioxide]
OPM-2; Homo sapiens, OPM-2, 16 h
  IC50: 155 nM
Mcl-1/Bim interaction
  IC50: 0.37 nM

## CCN(CC)[C@H]1CO[C@H]([C@H]2CCC[C@H](C)[C@@H](C)S(=O)(=O)NC(=O)c3ccc4c(c3)N(C[C@@H]3CC[C@H]32)C[C@@]2(CCCc3cc(Cl)ccc32)CO4)OC1 [Example 28, (1S,3′R,6′R,7′S,11′S,12′R)-6-chloro-7′-(trans-5-(diethylamino)-1,3-dioxan-2-yl)-11′,12′-dimethyl-3,4-dihydro-2H,15′H-spiro[naphthalene-1,22′-[20]oxa[13]thia[1,14]diazatetracyclo [14.7.2.0~3,6~.0~19,24~]pentacosa[16,18,24]trien]-15′-one 13′,13′-dioxide]
OPM-2; Homo sapiens, OPM-2, 16 h
  IC50: 403 nM
Mcl-1/Bim interaction
  IC50: 0.477 nM

## CC(=O)N1C[C@@H]2O[C@@H]([C@H]3CCC[C@H](C)[C@@H](C)S(=O)(=O)NC(=O)c4ccc5c(c4)N(C[C@@H]4CC[C@H]43)C[C@@]3(CCCc4cc(Cl)ccc43)CO5)O[C@@H]2C1 [Example 36, (1S,3′R,6′R,7′S,11′S,12′R)-7′-((2r,3aR,6aS)-5-acetyltetrahydro-3aH-[1,3]dioxolo[4,5-c]pyrrol-2-yl)-6-chloro-11′,12′-dimethyl-3,4-dihydro-2H,15′H-spiro[naphthalene-1,22′-[20]oxa[13]thia[1,14]diazatetracyclo [14.7.2.0~3,6~.0~19,24~]pentacosa[16,18,24]trien]-15′-one 13′,13′-dioxide]
OPM-2; 16 h
  IC50: 169 nM
Mcl-1/Bim interaction
  IC50: 0.217 nM

## CC(=O)N1C[C@@H]2O[C@H]([C@H]3CCC[C@H](C)[C@@H](C)S(=O)(=O)NC(=O)c4ccc5c(c4)N(C[C@@H]4CC[C@H]43)C[C@@]3(CCCc4cc(Cl)ccc43)CO5)O[C@@H]2C1 [Example 37, (1S,3′R,6′R,7′S,11′S,12′R)-7′-((2s,3aR,6aS)-5-acetyltetrahydro-3aH-[1,3]dioxolo[4,5-c]pyrrol-2-yl)-6-chloro-11′,12′-dimethyl-3,4-dihydro-2H,15′H-spiro[naphthalene-1,22′-[20]oxa[13]thia[1,14]diazatetracyclo [14.7.2.0~3,6~.0~19,24~]pentacosa[16,18,24]trien]-15′-one 13′,13′-dioxide]
OPM-2; 16 h
  IC50: 148 nM
Mcl-1/Bim interaction
  IC50: 0.098 nM

## CC(=O)N1C[C@@H]2O[C@@H]([C@H]3CCC[C@H](C)[C@@H](C)S(=O)(=O)NC(=O)c4ccc5c(c4)N(C[C@@H]4CC[C@H]43)C[C@@]3(CCCc4cc(Cl)ccc43)CO5)O[C@@H]2C1 [Example 38, (1S,3′R,6′R,7′S,11′S,12′R)-7′-((2r,3aR,6aS)-5-acetyltetrahydro-3aH-[1,3]dioxolo[4,5-c]pyrrol-2-yl)-6-chloro-11′,12′-dimethyl-3,4-dihydro-2H,15′H-spiro[naphthalene-1,22′-[20]oxa[13]thia[1,14]diazatetracyclo [14.7.2.0~3,6~.0~19,24~]pentacosa[16,18,24]trien]-15′-one 13′,13′-dioxide]
OPM-2; 16 h
  IC50: 819 nM
Mcl-1/Bim interaction
  IC50: 0.537 nM

## C[C@@H]1[C@@H](C)CCC[C@H]([C@H]2OC[C@](N)(CO)CO2)[C@@H]2CC[C@H]2CN2C[C@@]3(CCCc4cc(Cl)ccc43)COc3ccc(cc32)C(=O)NS1(=O)=O [Example 40, (1S,3′R,6′R,7′S,11′S,12′R)-7′-(cis-5-amino-5-(hydroxymethyl)-1,3-dioxan-2-yl)-6-chloro-11′,12′-dimethyl-3,4-dihydro-2H,15′H-spiro[naphthalene-1,22′-[20]oxa[13]thia[1,14]diazatetracyclo [14.7.2.0~3,6~.0~19,24~]pentacosa[16,18,24]trien]-15′-one 13′,13′-dioxide]
OPM-2; 16 h
  IC50: 1560 nM
Mcl-1/Bim interaction
  IC50: 0.577 nM

## CC(=O)N(C)[C@H]1CO[C@@H]([C@H]2CCC[C@H](C)[C@@H](C)S(=O)(=O)NC(=O)c3ccc4c(c3)N(C[C@@H]3CC[C@H]32)C[C@@]2(CCCc3cc(Cl)ccc32)CO4)OC1 [Example 47, N-(cis-2-((1S,3′R,6′R,7′S,11′S,12′R)-6-chloro-11′,12′-dimethyl-13′,13′-dioxido-15′-oxo-3,4-dihydro-2H-spiro[naphthalene-1,22′-[20]oxa[13]thia[1,14]diazatetracyclo [14.7.2.0~3,6~.0~19,24~]pentacosa[16,18,24]trien]-7′-yl)-1,3-dioxan-5-yl)-N-methylacetamide]
OPM-2; Homo sapiens, OPM-2, 16 h
  IC50: 545 nM
Mcl-1/Bim interaction
  IC50: 0.568 nM

## CN[C@H]1CO[C@H]([C@H]2CCC[C@H](C)[C@@H](C)S(=O)(=O)NC(=O)c3ccc4c(c3)N(C[C@@H]3CC[C@H]32)C[C@@]2(CCCc3cc(Cl)ccc32)CO4)OC1 [Example 48, (1S,3′R,6′R,7′S,11′S,12′R)-6-chloro-11′,12′-dimethyl-7′-(trans-5-(methylamino)-1,3-dioxan-2-yl)-3,4-dihydro-2H,15′H-spiro[naphthalene-1,22′-[20]oxa[13]thia[1,14]diazatetracyclo [14.7.2.0~3,6~.0~19,24~]pentacosa[16,18,24]trien]-15′-one 13′,13′-dioxide]
OPM-2; 16 h
  IC50: 184 nM
Mcl-1/Bim interaction
  IC50: 0.59 nM

## CN[C@H]1CO[C@H]([C@H]2CCC[C@H](C)[C@@H](C)S(=O)(=O)NC(=O)c3ccc4c(c3)N(C[C@@H]3CC[C@H]32)C[C@@]2(CCCc3cc(Cl)ccc32)CO4)OC1 [Example 49, (1S,3′R,6′R,7′S,11′S,12′R)-6-chloro-11′,12′-dimethyl-7′-(trans-5-(methylamino)-1,3-dioxan-2-yl)-3,4-dihydro-2H,15′H-spiro[naphthalene-1,22′-[20]oxa[13]thia[1,14]diazatetracyclo [14.7.2.0~3,6~.0~19,24~]pentacosa[16,18,24]trien]-15′-one 13′,13′-dioxide]
OPM-2; 16 h
  IC50: 966 nM
Mcl-1/Bim interaction
  IC50: 1.52 nM

## C[C@@H]1[C@@H](C)CCC[C@H]([C@H]2OC[C@@H](N3CC4(COC4)C3)CO2)[C@@H]2CC[C@H]2CN2C[C@@]3(CCCc4cc(Cl)ccc43)COc3ccc(cc32)C(=O)NS1(=O)=O [Example 60, (1S,3′R,6′R,7′S,11′S,12′R)-6-chloro-11′,12′-dimethyl-7′-(cis-5-(2-oxa-6-azaspiro[3.3]hept-6-yl)-1,3-dioxan-2-yl)-3,4-dihydro-2H,15′H-spiro[naphthalene-1,22′-[20]oxa[13]thia[1,14]diazatetracyclo [14.7.2.0~3,6~.0~19,24~]pentacosa[16,18,24]trien]-15′-one 13′,13′-dioxide]
OPM-2; Homo sapiens, OPM-2, 16 h
  IC50: 610 nM
Mcl-1/Bim interaction
  IC50: 0.897 nM
